Experiments:
[1] = test system: corn hybrid AG 8088 VT PRO; experiment: Field study, no-till rainfed corn: harvest, dry plant mass, N content; format: in vivo; settings: 135 kg/ha of N
Description: A field study was carried out of an area under no-till system that was cultivated with rainfed corn (i.e., without irrigation). The corn cultured was a corn hybrid AG 8088 VT PRO (High yield) with a Standak Top of 100 mL/ha and a plant density of 77,000 plants/ha. The following three formulations were applied at three different rates ([…]) to a field: • Trident Formulation (10-10-10; % polymer-% DCD-% NBPT) • Trident V Formulation (5-5-15; % polymer-% DCD-% NBPT) • Trident N Formulation (5-20-5; % polymer-% DCD-% NBPT)
As a control, plants were only treated with the nitrogen fertilizer (e.g., UAN with 30%-45% N) or were left untreated.
The nitrogen fertilizer was applied with 135 kg/ha of N, which corresponds to a dose of 75N/bu for 10.8 ton/ha of maize. In addition a typical herbicide, fungicide and insecticide program was adopted to remove all study variability due to weeds, diseases or insects throughout the study period;
(§1) The activity of nitrate reductase enzyme at V2-V3 and flowering (first fully developed leaf, three plants per plot) was measured. In addition, soil collection was performed for the determination of N—NO3 and N—NH4 up to 30 days after the application of the cover. This methodology was adapted by Cataldo et al (1975) and Kemper; Zewers (1986). Soil Fertility Center (CEFERT). Growth analysis was performed on dry plant mass every 30 days. Harvesting was performed at physiological maturity. The plants of the three central lines of each plot was harvested excluding 1.0 meter at each end. The rows were measured and the number of plants and ears per row harvested were counted. After harvesting, manual threshing was performed and the 100 grain mass was determined as well as the yield of the crop. Harvest results were estimated for kg/ha and bu/acre.

soil = experiment: Field study: soil collection for determination of N-NO3 and N-NH4; format: in vivo
Description: as §1, with “N-NO3” for “N—NO3”, “N-NH4” for “N—NH4”, “([…]).” for “(CEFERT).”

nitrate reductase enzyme = experiment: Field study: activity of nitrate reductase enzyme in the leaves; format: in vivo, corn
Description: as §1, with “N-NO3” for “N—NO3”, “N-NH4” for “N—NH4”, “([…]).” for “(CEFERT).”

[2] = cited from earlier work
[3] = first collection within 30 days
[4] = second collection within 30 days

| SMILES | MSCaule (production of dry mass of corn plants: corn plant stems) [1] | MSEspiga [1] | MSFolhas (production of dry mass of corn plants: leaves) [1] | MSTotal (production of total dry mass of corn plants) [1] | N Folha (leaf nitrogen content) [1] | N Grão [1] | grains of corn on the corn ear (FIG. 3) ([1]; compared to untreated) | 1 NH4 (NH4 values in the soil) (soil; [3]) | 1 NO3 (NO3 values in the soil) (soil; [3]) | 2 NH4 (NH4 values in the soil) (soil; [4]) | 2 NO3 (NO3 values in the soil) (soil; [4]) | 1 ANR (activity of the enzyme nitrate reductase in the leaves) (nitrate reductase enzyme; first measurement (measured at V2-V3 and flowering)) | 2 ANR (activity of the enzyme nitrate reductase in the leaves) (nitrate reductase enzyme; second measurement (measured at V2-V3 and flowering)) | solubility in water [2] |
| --- | --- | --- | --- | --- | --- | --- | --- | --- | --- | --- | --- | --- | --- | --- |
| NC(N)=O [Urea N, urea] | 148.04 g plant−1 | 191.75 g plant−1 | 80.28 g plant−1 | 420.06 g plant−1 | 2.24 dag kg−1 | 115.04 kg ha−1 | exhibited more grains of corn compared to ears that were untreated | 31.97 mg/kg | 34.16 mg/kg | 25.93 mg/kg | 27.07 mg/kg | 137.51 | 74.82 | – |
| N#CN=C(N)N [dicyandiamide] | – | – | – | – | – | – | – | – | – | – | – | – | – | about 41 g/l |
